Among the data in ChEMBL document CHEMBL1124865, “Synthesis and biological evaluation of a series of parenteral 3'-quaternary ammonium cephalosporins” (J Med Chem, 1990) are MIC values, retold here.

≈ marks a conversion by molar mass, not a printed value.

What all share (format): functional
Assay [1] has as its system Enterobacter cloacae. As to the kind of experiment: Antibacterial activity against Enterobacter cloacae 265A. The note with it: Enterobacter cloacae; read-out: MIC.
Assay [2] concerns Escherichia coli. As to the kind of experiment: Antibacterial activity against Escherichia coli EC14. The settings on record: Escherichia coli; read-out: MIC.
Assay [3] has as its system Enterobacter cloacae. As to the kind of experiment: Antibacterial activity against Enterobacter cloacae EB5. The settings on record: Enterobacter cloacae; read-out: MIC.
Assay [4] has as its system Escherichia coli. As to the kind of experiment: Antibacterial activity against Escherichia coli TEM. The note with it: Escherichia coli; read-out: MIC.
Assay [5] relates to Klebsiella pneumoniae. As to the kind of experiment: microbe, parasite or virus in culture. The settings on record: Klebsiella pneumoniae; read-out: MIC.
Description: Antibacterial activity against Klebsiella pneumoniae 1082E
Assay [6] deals with Klebsiella pneumoniae. The experiment in a line: Antibacterial activity against Klebsiella pneumoniae X26. The note with it: Klebsiella pneumoniae; read-out: MIC.
Assay [7] has as its system Pseudomonas aeruginosa. As to the kind of experiment: Antibacterial activity against Pseudomonas aeruginosa X528. The settings on record: Pseudomonas aeruginosa; read-out: MIC.
In assay [8] the test system is Pseudomonas aeruginosa. As to the kind of experiment: Antibacterial activity against Pseudomonas aeruginosa PS18. The settings on record: Pseudomonas aeruginosa; read-out: MIC.
Assay [9] relates to Staphylococcus aureus. As to the kind of experiment: Antibacterial activity against penicillin G resistance Staphylococcus aureus. The settings on record: Staphylococcus aureus; read-out: MIC.
In assay [10] the test system is Staphylococcus aureus. As to the kind of experiment: Antibacterial activity against penicillin G susceptible Staphylococcus aureus. The note with it: Staphylococcus aureus; read-out: MIC.
The test system of assay [11] is Streptococcus pneumoniae. The experiment in a line: Antibacterial activity against Streptococcus pneumoniae. The settings on record: Streptococcus pneumoniae; read-out: MIC.
The subject of assay [12] is Serratia marcescens. As to the kind of experiment: Antibacterial activity against Serratia marcescens SE3. The note with it: Serratia marcescens; read-out: MIC.
In assay [13] the test system is Streptococcus pyogenes. As to the kind of experiment: Antibacterial activity against Streptococcus pyogenes. The settings on record: Streptococcus pyogenes; read-out: MIC.
Assay [14] deals with Enterococcus faecium. The experiment in a line: Antibacterial activity against Enterococcus faecium. The settings on record: Enterococcus faecium; read-out: MIC.

On to `CO/N=C(\C(=O)N[C@@H]1C(=O)N2C(C(=O)[O-])=C(C[n+]3ccc4cncnc4c3)CS[C@H]12)c1csc(N)n1`, for which the MIC in assay [1] is 16 µg/mL (≈ 30.4 µM); in [2], 0.25 µg/mL (≈ 0.475 µM); in [3], 1 µg/mL (≈ 1.9 µM); in assay [4] it was 0.125 µg/mL (≈ 0.237 µM); in [5] it was 16 µg/mL (≈ 30.4 µM); in assay [6], 0.125 µg/mL (≈ 0.237 µM). The MIC was found to be 32 µg/mL (≈ 60.8 µM) in assay [7]; 64 µg/mL (≈ 122 µM) in [8]; 32 µg/mL (≈ 60.8 µM) in assay [9]; 4 µg/mL (≈ 7.6 µM) in assay [10]; 0.03 µg/mL (≈ 0.057 µM) in assay [11]; 1 µg/mL (≈ 1.9 µM) in assay [12]. The results for the MIC in assay [13] and in assay [14] were 0.06 µg/mL (≈ 0.114 µM) and 128 µg/mL (≈ 243 µM), respectively.

Turning to `CO/N=C(\C(=O)N[C@@H]1C(=O)N2C(C(=O)[O-])=C(C[n+]3cc(C)c4ccccc4c3)CS[C@H]12)c1csc(N)n1`, the MIC in assay [1] worked out at 2 µg/mL (≈ 3.71 µM); in [2], 0.06 µg/mL (≈ 0.111 µM); in assay [3], 0.25 µg/mL (≈ 0.464 µM); in assay [4] it was 0.03 µg/mL (≈ 0.0557 µM); in assay [5] it was 8 µg/mL (≈ 14.9 µM); in [6], 0.015 µg/mL (≈ 0.0278 µM). In addition, the MIC is 4 µg/mL (≈ 7.43 µM) in assay [7]; 16 µg/mL (≈ 29.7 µM) in [8]; 2 µg/mL (≈ 3.71 µM) in [9]; 1 µg/mL (≈ 1.86 µM) in [10]; under 0.008 µg/mL in assay [11]; 0.25 µg/mL (≈ 0.464 µM) in assay [12]. The MIC in assay [13] was under 0.008 µg/mL; in [14], over 128 µg/mL.

On to `CO/N=C(\C(=O)N[C@@H]1C(=O)N2C(C(=O)[O-])=C(C[n+]3cccc4ccoc43)CS[C@H]12)c1csc(N)n1`, for which the MIC in assay [1] was 8 µg/mL (≈ 15.5 µM); in assay [2], under 0.008 µg/mL; in assay [3], 0.125 µg/mL (≈ 0.243 µM); in [4] it was 0.06 µg/mL (≈ 0.117 µM); in assay [5], 4 µg/mL (≈ 7.77 µM); in [6], under 0.008 µg/mL. Further, the MIC in assay [7] was 4 µg/mL (≈ 7.77 µM); in assay [8], 16 µg/mL (≈ 31.1 µM); in assay [9] it was 16 µg/mL (≈ 31.1 µM); in assay [10] it was 2 µg/mL (≈ 3.89 µM); in assay [11], under 0.008 µg/mL; in assay [12], 0.125 µg/mL (≈ 0.243 µM). The MIC in [13] was under 0.008 µg/mL; in assay [14] it was over 128 µg/mL.

For the compound `CO/N=C(\C(=O)N[C@@H]1C(=O)N2C(C(=O)[O-])=C(C[n+]3ccc4[nH]c(C)nc4c3)CS[C@H]12)c1csc(N)n1`, the MIC in [1] was determined as 8 µg/mL (≈ 15.1 µM); in assay [2] it was 0.008 µg/mL (≈ 0.0151 µM); in assay [4] it was 0.008 µg/mL (≈ 0.0151 µM); in assay [5], 2 µg/mL (≈ 3.78 µM); in assay [6], 0.008 µg/mL (≈ 0.0151 µM); in assay [7], 2 µg/mL (≈ 3.78 µM). Further, the MIC came to 8 µg/mL (≈ 15.1 µM) in assay [8]; 8 µg/mL (≈ 15.1 µM) in assay [9]; 2 µg/mL (≈ 3.78 µM) in assay [10]; 0.008 µg/mL (≈ 0.0151 µM) in [11]; 0.008 µg/mL (≈ 0.0151 µM) in assay [13]; 128 µg/mL (≈ 242 µM) in assay [14].

As to `CO/N=C(\C(=O)N[C@@H]1C(=O)N2C(C(=O)[O-])=C(C[n+]3ccc4[nH]cnc4c3)CS[C@H]12)c1csc(N)n1`, the MIC was found to be 8 µg/mL (≈ 15.5 µM) in [1]; 0.008 µg/mL (≈ 0.0155 µM) in assay [2]; 0.008 µg/mL (≈ 0.0155 µM) in [4]; 8 µg/mL (≈ 15.5 µM) in assay [5]; 0.008 µg/mL (≈ 0.0155 µM) in assay [6]; 2 µg/mL (≈ 3.89 µM) in [7]. In addition, the MIC in assay [8] came to 8 µg/mL (≈ 15.5 µM); in [9], 2 µg/mL (≈ 3.89 µM); in assay [10], 2 µg/mL (≈ 3.89 µM); in assay [11] it was 0.008 µg/mL (≈ 0.0155 µM); in assay [12], 0.125 µg/mL (≈ 0.243 µM); in assay [13], 0.008 µg/mL (≈ 0.0155 µM).

With `CO/N=C(\C(=O)N[C@@H]1C(=O)N2C(C(=O)[O-])=C(C[n+]3ccc4scnc4c3)CS[C@H]12)c1csc(N)n1`, the MIC in assay [1] is 8 µg/mL (≈ 15 µM); in [2], 0.015 µg/mL (≈ 0.0282 µM); in [5] it was 4 µg/mL (≈ 7.52 µM); in assay [6] it was 0.015 µg/mL (≈ 0.0282 µM); in assay [7], 1 µg/mL (≈ 1.88 µM); in assay [8], 4 µg/mL (≈ 7.52 µM). The MIC in [9] is 8 µg/mL (≈ 15 µM); in assay [10], 1 µg/mL (≈ 1.88 µM); in [11] it was 0.015 µg/mL (≈ 0.0282 µM); in [13] it was 0.015 µg/mL (≈ 0.0282 µM).

As for `CCc1nc2c[n+](CC3=C(C(=O)[O-])N4C(=O)[C@@H](NC(=O)/C(=N\OC)c5csc(N)n5)[C@H]4SC3)ccc2s1`, the MIC in [1] is 4 µg/mL (≈ 7.15 µM); in assay [2] it was 0.015 µg/mL (≈ 0.0268 µM); in assay [4] it was 0.015 µg/mL (≈ 0.0268 µM); in assay [5], 2 µg/mL (≈ 3.57 µM); in [6], 0.008 µg/mL (≈ 0.0143 µM); in assay [7], 4 µg/mL (≈ 7.15 µM). The MIC in assay [8] was 16 µg/mL (≈ 28.6 µM); in [9] it was 4 µg/mL (≈ 7.15 µM); in assay [10], 1 µg/mL (≈ 1.79 µM); in assay [11], 0.008 µg/mL (≈ 0.0143 µM); in assay [13] it was 0.008 µg/mL (≈ 0.0143 µM); in assay [14], 128 µg/mL (≈ 229 µM).

For `CO/N=C(\C(=O)N[C@@H]1C(=O)N2C(C(=O)[O-])=C(C[n+]3ccc4[nH]c(-c5ccccc5)nc4c3)CS[C@H]12)c1csc(N)n1`, the MIC in [3] was determined as 0.5 µg/mL (≈ 0.847 µM); in assay [5], 2 µg/mL (≈ 3.39 µM); in assay [6], 0.015 µg/mL (≈ 0.0254 µM); in assay [8] it was 128 µg/mL (≈ 217 µM); in assay [9], 8 µg/mL (≈ 13.5 µM); in [10], 2 µg/mL (≈ 3.39 µM). Moreover, the MIC in [11] came to 0.008 µg/mL (≈ 0.0135 µM); in [12], 1 µg/mL (≈ 1.69 µM); in assay [13], 0.008 µg/mL (≈ 0.0135 µM); in [14] it was 128 µg/mL (≈ 217 µM).

`CO/N=C(\C(=O)N[C@@H]1C(=O)N2C(C(=O)[O-])=C(C[n+]3ccc4oc(C)nc4c3)CS[C@H]12)c1csc(N)n1`: the MIC in [1] turned out to be 8 µg/mL (≈ 15.1 µM); in [5], 4 µg/mL (≈ 7.55 µM); in assay [6], 0.015 µg/mL (≈ 0.0283 µM); in assay [7], 4 µg/mL (≈ 7.55 µM); in [8] it was 8 µg/mL (≈ 15.1 µM); in [9], 8 µg/mL (≈ 15.1 µM). The MIC in [10] came to 1 µg/mL (≈ 1.89 µM); in assay [11] it was 0.015 µg/mL (≈ 0.0283 µM); in assay [13] it was 0.015 µg/mL (≈ 0.0283 µM); in assay [14], 128 µg/mL (≈ 242 µM).
